Experimental findings from patent publication US20140023611A1 (priority 2010, published 2014) are described below.

Test [1] deals with uptake of phosphate from the intestine. The test can be described thus: In vivo assay: bolus phosphorus (phosphate) challenge. Also on record: species or system Sprague-Dawley rats. Particulars: Structure (V) examples, Table 4, rat, oral 30 mg/kg. The method, then: By pretreating animals with a low phosphorus diet followed by the subsequent dosing of a phosphorus bolus, serum phosphorus levels were monitored after 30 minutes as a surrogate for intestinal phosphorus absorption. […] The in vivo bolus phosphorus challenge model used here mimics this model in rats.
Male, 7-week-old Sprague-Dawley rats (Charles-River laboratories international, Hollister, Calif.) were allowed to acclimatize for a minimum of 3 days before switching to a synthetic low-phosphorus diet (TD.85010, Harlan Teklad, Madison, Wis.) which contains 0.1% phosphorus and 0.6% calcium. At day 5, testing compounds or vehicle alone (as indicated) were orally administered at the indicated dose in a volume of 5 ml/kg, followed by a bolus gavage of monobasic sodium phosphate (1 mmol in 1 ml) 15 min after compound dosing. Serum was collected via retroorbital bleeding 30 min post phosphate bolus and phosphate levels were determined utilizing an ACE ALERA blood chemistry analyzer (Alfa Wassermann Diagnostic Technologies, West Caldwell, N.J.). […]
Male, 7-week-old Sprague-Dawley rats (Charles-River laboratories international, Hollister, Calif.) were allowed to acclimate for a minimum of 3 days before switching to a synthetic low-phosphorus diet (TD.85010, Harlan Teklad, Madison, Wis.) which contains 0.1% phosphorus and 0.6% calcium. At day 5, testing compounds or vehicle alone (as indicated) were orally administered at the indicated dose in a volume of 5 ml/kg, followed by a bolus gavage of monobasic sodium phosphate (1 mmol in 1 ml) 15 min after compound dosing. Serum was collected via retroorbital bleeding 30 min post phosphate bolus and phosphate levels were determined utilizing an ACE ALERA blood chemistry analyzer (Alfa Wassermann Diagnostic Technologies, West Caldwell, N.J.).
Serum was collected 30 minutes after gavage, and phosphate levels measured. […] The in vivo bolus phosphate challenge model used here mimics this model in rats.
Male, 7-week-old Sprague-Dawley rats (Charles-River laboratories international, Hollister, Calif.) were allowed to acclimatize for a minimum of 3 days before switching to a low-phosphorus diet (TD.85010, Harlan Teklad, Madison, Wis.) which contains 0.1% phosphorus and 0.6% calcium. At day 5, testing compounds or vehicle alone (as indicated) were orally administered at the indicated dose in a volume of 5 ml/kg, followed by a bolus gavage of monobasic sodium phosphate (1 mmol in 1 ml) 15 min after compound dosing. Serum was collected via retroorbital bleeding 30 min post phosphate bolus and serum phosphate levels were determined utilizing an ACE ALERA blood chemistry analyzer (Alfa Wassermann Diagnostic Technologies, West Caldwell, N.J.).
The representative data on effects of test compounds on serum phosphate levels are shown in Table 4 (data are expressed as mean±SD, with 6 animals per data point). The differences between groups were evaluated by one-way analysis of variance with Dunnett's post hoc tests.

Test [2] concerns the target T1, rat NaP2b (SLC34A2) (Rattus norvegicus, UniProt Q9JJ09).
T1 construct: host or cells: HEK293
T1 sequence (Q9JJ09 1-695): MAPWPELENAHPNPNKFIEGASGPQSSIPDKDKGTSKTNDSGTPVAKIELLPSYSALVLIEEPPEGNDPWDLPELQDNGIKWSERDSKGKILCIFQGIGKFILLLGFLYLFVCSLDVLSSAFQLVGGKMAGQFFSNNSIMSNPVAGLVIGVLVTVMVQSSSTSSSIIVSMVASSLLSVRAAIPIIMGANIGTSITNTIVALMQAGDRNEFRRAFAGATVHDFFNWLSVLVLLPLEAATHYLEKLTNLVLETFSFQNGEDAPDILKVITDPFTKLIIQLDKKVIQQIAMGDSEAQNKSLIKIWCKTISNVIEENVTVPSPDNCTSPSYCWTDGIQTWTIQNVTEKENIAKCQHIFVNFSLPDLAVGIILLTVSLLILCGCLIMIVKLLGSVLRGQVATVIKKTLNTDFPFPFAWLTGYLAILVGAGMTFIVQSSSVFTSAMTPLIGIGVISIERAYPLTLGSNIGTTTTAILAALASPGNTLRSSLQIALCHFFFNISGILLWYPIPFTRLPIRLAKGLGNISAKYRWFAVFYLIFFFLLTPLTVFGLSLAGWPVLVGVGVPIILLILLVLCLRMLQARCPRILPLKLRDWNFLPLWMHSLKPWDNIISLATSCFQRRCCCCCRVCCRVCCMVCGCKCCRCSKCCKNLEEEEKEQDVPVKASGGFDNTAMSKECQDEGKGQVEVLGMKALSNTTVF
The test can be described thus: NaP2b-mediated Pi transport (33P uptake) in transfected HEK293 cells, rat NaP2b. As to conditions: Structure (V) examples, Table 2; rat NaP2b, HEK293; read-out: pIC50 Range (converted). It is filed as cell-based. The method, then:
HEK293 cells were obtained from the American Type Culture collection and propagated per their instructions. Expression clones for rat and human NaP2b (SLC34A2) were obtained from Open Biosystems (Catalog numbers MRN1768-9510282, and MHS1010-99823026, respectively). The sequence of the human protein was mutated to insert a threonine after residue 37, and to introduce a N39D mutation.
The rate of phosphate (Pi) uptake into HEK293 cells was measured using a modification of the method described by Mohrmann et al. (Mohrmann, I., Mohrmann, M., Biber, J., and Murer, H. (1986) Am. J. Phys. 250(3 Pt 1):G323-30.) Transfected HEK293 cells were treated with a pharmacological agent to minimize endogenous PiT-mediated phosphate transport activity, such that the only remaining sodium-dependent phosphate transport activity is that which was bestowed by introduction of the NaP2b genes.
(§1) Cells were seeded into 96-well plates at 25,000 cells/well and cultured overnight. Lipofectamine 2000 (Invitrogen) was used to introduce the NaP2b cDNA, and the cells were allowed to approach confluence during a second overnight incubation. […] Cells were then overlayed with either choline uptake buffer or sodium uptake buffer (14 mM Tris, 137 mM sodium chloride, 5.4 mM KCl, 2.8 mM CaCl2, 1.2 mM MgSO4, 100 uM KH2PO4, PiT-silencing agent, 1 mg/mL Bovine Serum Albumin, pH 7.4) containing 6-9 uCi/mL ^33P orthophosphoric acid (Perkin Elmer) and test compound. Each compound was tested at twelve concentrations ranging from 0.1 nM to 30 uM. Assays were run in duplicate.
After incubation for 3-30 minutes at room temperature, assay mixtures were removed, and the cells were washed twice with ice cold stop solution (137 mM sodium chloride, 14 mM Tris, pH 7.4). Cells were lysed by addition of 20 μL 0.1% Tween 80 followed by 100 μL scintillation fluid, and counted using a TopCount (Perkin Elmer).
pIC50 (the negative log of the IC50) values of the test compounds were calculated using GraphPad Prism.
HEK293 cells were obtained from the American Type Culture collection and propagated per their instructions. Expression clones for rat and mouse NaP2b (SLC34A2) cDNAs were obtained from Open Biosystems (Catalog numbers MRN1768-9510282 and MMM1013-98478398 respectively).
The rate of phosphate uptake into HEK293 cells was measured using a modification of the method described by Mohrmann et al. (Mohrmann, I., Mohrmann, M., Biber, J., and Murer, H. (1986) Am. J. Phys. 250(3 Pt 1):G323-30.) Transfected HEK293 cells were treated with a pharmacological agent to minimize endogenous PiT-mediated phosphate transport activity, such that the only remaining sodium-dependent phosphate transport activity is that which was bestowed by introduction of the NaP2b genes.
as §1, with “agent, 0.1% wt/v bovine serum albumin,” for “agent, 1 mg/mL Bovine Serum Albumin,”, “Each compounds” for “Each compound”
After incubation for 3-30 minutes at room temperature, assay mixtures were removed, and the cells were washed twice with ice cold stop solution (137 mM sodium chloride, 14 mM Tris, pH 7.4).

The next test has as its system NaPi2b. The test can be described thus: Competition with phosphate: Pi uptake assay repeated at 2.1 vs 0.1 mM phosphate. The format is cell-based. As to conditions: potency at 2.1 vs 0.1 mM phosphate. An excerpt:
For example, a phosphate uptake assay can be performed and the IC50 values for a compound at different phosphate concentrations can be determined (e.g., “Enzyme kinetics”, I. Segel, 1975, John-Wiley & Sons, p. 123). IC50 values for non-competitive inhibitors will remain the same or similar with respect to the phosphate concentration, whereas IC50 values for competitive inhibitors will increase (i.e lose potency) as phosphate concentration increases.
To ascertain if an inhibitor was competitive for binding with phosphate, the procedure was repeated, but raising the concentration of the substrate in the assay mixture from 0.1 to 2.1 mM phosphate.

The target in test [3] is T1, rat NaP2b (SLC34A2). The test can be described thus: Inhibition of NaP2b-mediated Pi (33P) uptake in transfected HEK293 cells, rat NaP2b. Particulars: 33P Pi uptake, 0.1 mM phosphate, value given as pIC50 range. It is filed as cell-based. Summed up: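 The cells transiently expressed NaP2b after Lipofectamine transfection. Each compound was run in duplicate over twelve concentrations, 0.1 nM–30 uM.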

The target of the next test is T2, human NaP2b (SLC34A2) (Homo sapiens, UniProt O95436).
T2 construct: host or cells: HEK293
T2 sequence (O95436 1-690): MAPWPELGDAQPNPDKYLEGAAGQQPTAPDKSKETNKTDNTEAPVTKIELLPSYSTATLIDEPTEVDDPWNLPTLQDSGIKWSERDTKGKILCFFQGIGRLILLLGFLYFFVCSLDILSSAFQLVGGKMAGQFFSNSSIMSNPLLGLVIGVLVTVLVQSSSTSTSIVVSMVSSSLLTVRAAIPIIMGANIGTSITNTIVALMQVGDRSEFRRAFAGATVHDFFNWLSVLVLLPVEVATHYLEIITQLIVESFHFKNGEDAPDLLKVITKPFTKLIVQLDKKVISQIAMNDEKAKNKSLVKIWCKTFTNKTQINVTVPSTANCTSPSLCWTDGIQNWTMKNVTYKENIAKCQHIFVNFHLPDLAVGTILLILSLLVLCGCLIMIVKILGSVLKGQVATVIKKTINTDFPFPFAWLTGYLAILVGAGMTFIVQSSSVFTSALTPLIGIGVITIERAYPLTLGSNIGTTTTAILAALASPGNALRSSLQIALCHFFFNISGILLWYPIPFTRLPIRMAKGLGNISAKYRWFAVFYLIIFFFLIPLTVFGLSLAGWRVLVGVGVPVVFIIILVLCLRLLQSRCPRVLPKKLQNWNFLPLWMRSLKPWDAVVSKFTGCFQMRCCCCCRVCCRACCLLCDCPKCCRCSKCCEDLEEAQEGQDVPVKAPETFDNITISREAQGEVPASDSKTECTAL
The test is described as follows: Inhibition of NaP2b-mediated Pi (33P) uptake in transfected HEK293 cells, human NaP2b. The format is cell-based. Particulars: read-out: pIC50 range for human NaP2b (converted). In short, it runs like this: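 Uptake of 33P-phosphate (100 uM KH2PO4 carrier, sodium vs choline buffer, pH 7.4) measured after 3-30 min at room temperature, with test compound at twelve concentrations from 0.1 nM to 30 uM in duplicate. Cells were HEK293 transfected with mutated human NaP2b (Thr insertion after 37, N39D) and treated with a PiT-silencing agent. pIC50 values from scintillation counts.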

As for `O=C(Nc1ccc(N2CCCCC2)cc1C(=O)N/N=C/c1ccc(Cl)c(C(F)(F)F)c1)c1cccc(Cn2cnc(CCO)c2)c1` [Ex. 47, (E)-N-(2-(2-(4-chloro-3-(trifluoromethyl)benzylidene)hydrazinecarbonyl)-4-(piperidin-1-yl)phenyl)-3-((4-(2-hydroxyethyl)-1H-imidazol-1-yl)methyl)benzamide], the “% Decrease in serum [Pi]” value in test [1] came out at 28%. Also, in test [1] (mean ± SD, vehicle 5.0 ± 1.3), the “Serum increase [Pi] mg/dL from baseline low PI state” value came to 3.6 ± 1.1 mg/dL. In addition, the IC50 on rat NaP2b (SLC34A2) [2] was 100 to 794 nM.

Consider `O=C(O)Cc1cccc(SCc2cccc(C(=O)Nc3ccc(N4CCCCC4)cc3-c3cc(C(=O)NCc4cccc(C(F)(F)F)c4)ccn3)c2)c1` [Example 8.18], for which the “Competitive with respect to Pi?” value in the test on NaPi2b was “No”. Also, the IC50 against rat NaP2b (SLC34A2) [3] was less than 1000 nM.

As for `O=C(O)c1cccc(S(=O)(=O)Cc2cccc(C(=O)Nc3ccc(N4CCCCC4)cc3-c3cc(C(=O)NCc4cccc(C(F)(F)F)c4)ccn3)c2)c1` [Example 8.26, 3-((3-((4-(Piperidin-1-yl)-2-(4-((3-(trifluoromethyl)benzyl)carbamoyl)pyridin-2-yl)phenyl)carbamoyl)benzyl)sulfonyl)benzoic acid], the “Competitive with respect to Pi?” value with NaPi2b was “No”. The compound also showed an IC50 at rat NaP2b (SLC34A2) [3] of 10000 to 31600 nM.

For the compound `O=C(O)CCOCCOCCOCCNC(=O)c1cccc(SCc2cccc(C(=O)Nc3ccc(N4CCCCC4)cc3-c3cc(C(=O)NCc4cccc(C(F)(F)F)c4)ccn3)c2)c1` [Example 10.1, 1-oxo-1-(3-(3-(4-(piperidin-1-yl)-2-(4-(3-(trifluoromethyl)benzyl-carbamoyl)pyridin-2-yl)phenylcarbamoyl)benzylthio)phenyl)-5,8,11-trioxa-2-azatetradecan-14-oic acid], the “Competitive with respect to Pi?” value in the test with NaPi2b was “No”. Further, the values for the IC50 on rat NaP2b (SLC34A2) [3] and at human NaP2b (SLC34A2) were 1000 to 7940 nM and less than 1000 nM, respectively.
